Target: T1, full length active recombinant SYK enzyme (Homo sapiens, UniProt P43405)
T1 construct: full length active recombinant SYK enzyme (Millipore, Calif.); purchased Millipore
Experiment: Inhibition of Syk tyrosine phosphorylation activity (LANCE TR-FRET kinase assay)
Format: biochemical
Settings: 1 nM active SYK enzyme, 550 nM SYK-substrate, 100 μM ATP, 1 hour at room temperature

SMILES	IC50
NC(=O)c1nnc(N[C@@H]2CCOC[C@@H]2N)nc1Nc1ccccc1 [Example 95, 3-(((3R,4R)-3-aminotetrahydro-2H-pyran-4-yl)amino)-5-(phenylamino)-1,2,4-triazine-6-carboxamide]	10 to 100 nM
CN(C)C(=O)c1ccc(Nc2nc(N[C@@H]3CCCC[C@@H]3N)nnc2C(N)=O)cc1 [Example 62, 3-(((1R,2S)-2-aminocyclohexyl)amino)-5-((4-(dimethylcarbamoyl)phenyl)amino)-1,2,4-triazine-6-carboxamide]	100 to 1000 nM
Cn1ncc2c(Nc3nc(N[C@@H]4CCOC[C@@H]4N)nnc3C(N)=O)cccc21 [Example 139, 3-(((3R,4R)-3-aminotetrahydro-2H-pyran-4-yl)amino)-5-((1-methyl-1H-indazol-4-yl)amino)-1,2,4-triazine-6-carboxamide]	10 to 100 nM
NC(=O)c1nnc(N[C@@H]2CCCC[C@@H]2N)nc1Nc1ccn2ccnc2c1 [Example 198, 3-(((1R,2S)-2-aminocyclohexyl)amino)-5-(imidazo[1,2-a]pyridin-7-ylamino)-1,2,4-triazine-6-carboxamide]	1 to 10 nM
Cc1cc(Nc2nc(N[C@@H]3CCCC[C@@H]3N)nnc2C(N)=O)sn1 [Example 101, 3-(((1R,2S)-2-aminocyclohexyl)amino)-5-((3-methylisothiazol-5-yl)amino)-1,2,4-triazine-6-carboxamide]	10 to 100 nM
Cc1ccc(Nc2nc(N[C@@H]3CCOC[C@@H]3N)nnc2C(N)=O)cc1 [Example 9, 3-(((3R,4R)-3-aminotetrahydro-2H-pyran-4-yl)amino)-5-(p-tolylamino)-1,2,4-triazine-6-carboxamide]	10 to 100 nM
NC(=O)c1nnc(N[C@@H]2CCOC[C@@H]2N)nc1Nc1ccc2ncccc2c1 [Example 55, 3-(((3R,4R)-3-aminotetrahydro-2H-pyran-4-yl)amino)-5-(quinolin-6-ylamino)-1,2,4-triazine-6-carboxamide]	1 to 10 nM
Cn1ccc2c(Nc3nc(N[C@@H](C(N)=O)C(C)(C)C)nnc3C(N)=O)cccc21 [Example 93, (R)-3-((1-amino-3,3-dimethyl-1-oxobutan-2-yl)amino)-5-((1-methyl-1H-indol-4-yl)amino)-1,2,4-triazine-6-carboxamide]	100 to 1000 nM
NC(=O)c1nnc(N[C@@H]2CCCC(F)(F)[C@@H]2N)nc1Nc1ccc2c(ccc[n+]2[O-])c1 [Example 50, 6-((3-(((1R,2R)-2-amino-3,3-difluorocyclohexyl)amino)-6-carbamoyl-1,2,4-triazin-5-yl)amino)quinoline 1-oxide]	100 to 1000 nM
COc1cc(Nc2nc(N[C@H](CC(C)C)C(N)=O)nnc2C(N)=O)ccn1 [Example 186, (R)-3-(1-amino-4-methyl-1-oxopentan-2-ylamino)-5-(2-methoxypyridin-4-ylamino)-1,2,4-triazine-6-carboxamide]	10 to 100 nM
CC[C@@H](Nc1nnc(C(N)=O)c(Nc2ccc3c(c2)COC3)n1)C(N)=O [Example 215, (R)-3-((1-amino-1-oxobutan-2-yl)amino)-5-((1,3-dihydroisobenzofuran-5-yl)amino)-1,2,4-triazine-6-carboxamide]	10 to 100 nM
Cc1ccc(Nc2nc(N[C@H](CC3CC3)C(N)=O)nnc2C(N)=O)cc1 [Example 226, (R)-3-((1-amino-3-cyclopropyl-1-oxopropan-2-yl)amino)-5-(p-tolylamino)-1,2,4-triazine-6-carboxamide]	10 to 100 nM
Cc1cccc(Nc2nc(N[C@@H]3CCCC(F)(F)[C@@H]3N)nnc2C(N)=O)c1 [Example 12, 3-(((1R,2R)-2-amino-3,3-difluorocyclohexyl)amino)-5-(m-tolylamino)-1,2,4-triazine-6-carboxamide]	10 to 100 nM
CC[C@@H](Nc1nnc(C(N)=O)c(Nc2cc(C)cc(F)c2)n1)C(N)=O [Example 197, (R)-3-((1-amino-1-oxobutan-2-yl)amino)-5-((3-fluoro-5-methylphenyl)amino)-1,2,4-triazine-6-carboxamide]	10 to 100 nM
NC(=O)c1nnc(N[C@@H]2CCCC[C@@H]2N)nc1Nc1cccc(F)c1 [Example 17, 3-(((1R,2S)-2-aminocyclohexyl)amino)-5-((3-fluorophenyl)amino)-1,2,4-triazine-6-carboxamide]	1 to 10 nM
NC(=O)c1nnc(N[C@@H]2CCCC(F)(F)[C@@H]2N)nc1Nc1csc2ncccc12 [Example 38, 3-(((1R,2R)-2-amino-3,3-difluorocyclohexyl)amino)-5-(thieno[2,3-b]pyridin-3-ylamino)-1,2,4-triazine-6-carboxamide]	10 to 100 nM
CC[C@@H](Nc1nnc(C(N)=O)c(Nc2ccc(C#N)cc2)n1)C(N)=O [Example 74, (R)-3-((1-amino-1-oxobutan-2-yl)amino)-5-((4-cyanophenyl)amino)-1,2,4-triazine-6-carboxamide]	100 to 1000 nM
NC(=O)c1nnc(N[C@@H]2CCCC[C@@H]2N)nc1Nc1ccc(Cl)cc1 [Example 27, 3-(((1R,2S)-2-aminocyclohexyl)amino)-5-((4-chlorophenyl)amino)-1,2,4-triazine-6-carboxamide]	1 to 10 nM

SMILES	IC50
NC(=O)c1nnc(N[C@@H]2CCCC[C@@H]2N)nc1Nc1ccc(C(F)(F)F)cc1 [Example 168, 3-(((1R,2S)-2-aminocyclohexyl)amino)-5-((4-(trifluoromethyl)phenyl)amino)-1,2,4-triazine-6-carboxamide]	10 to 100 nM
NC(=O)c1nnc(N[C@@H]2CCCC(F)(F)[C@@H]2N)nc1Nc1ccc2ncccc2c1 [Example 49, 3-(((1R,2R)-2-amino-3,3-difluorocyclohexyl)amino)-5-(quinolin-6-ylamino)-1,2,4-triazine-6-carboxamide]	10 to 100 nM
Cn1ncc2ccc(Nc3nc(N[C@H](CC(F)F)C(N)=O)nnc3C(N)=O)cc21 [Example 184, (R)-3-((1-amino-4,4-difluoro-1-oxobutan-2-yl)amino)-5-((1-methyl-1H-indazol-6-yl)amino)-1,2,4-triazine-6-carboxamide]	< 1 nM
NC(=O)c1nnc(N[C@@H]2CCCC(F)(F)[C@@H]2N)nc1Nc1ccc(Cl)c(Cl)c1 [Example 236, 3-(((1R,2R)-2-amino-3,3-difluorocyclohexyl)amino)-5-((3,4-dichlorophenyl)amino)-1,2,4-triazine-6-carboxamide]	100 to 1000 nM
NC(=O)c1nnc(N[C@@H]2CCCC(F)(F)[C@@H]2N)nc1Nc1ccccc1 [Example 96, 3-(((1R,2R)-2-amino-3,3-difluorocyclohexyl)amino)-5-(phenylamino)-1,2,4-triazine-6-carboxamide]	10 to 100 nM
CC[C@@H](Nc1nnc(C(N)=O)c(Nc2ccc(C)c(C#N)c2)n1)C(N)=O [Example 234, (R)-3-((1-amino-1-oxobutan-2-yl)amino)-5-((3-cyano-4-methylphenyl)amino)-1,2,4-triazine-6-carboxamide]	100 to 1000 nM
CC(C)C[C@@H](Nc1nnc(C(N)=O)c(Nc2ccc3c(cnn3C)c2)n1)C(N)=O [Example 111, (R)-3-((1-amino-4-methyl-1-oxopentan-2-yl)amino)-5-((1-methyl-1H-indazol-5-yl)amino)-1,2,4-triazine-6-carboxamide]	1 to 10 nM
NC(=O)c1nnc(N[C@@H]2CCCC[C@@H]2N)nc1Nc1cc(Cl)c2ncccc2c1 [Example 176, 3-(((1R,2S)-2-aminocyclohexyl)amino)-5-((8-chloroquinolin-6-yl)amino)-1,2,4-triazine-6-carboxamide]	< 1 nM
NC(=O)c1nnc(N[C@@H]2CCCC(F)(F)[C@@H]2N)nc1Nc1ccc2c(c1)CCOC2 [Example 214, 3-(((1R,2R)-2-amino-3,3-difluorocyclohexyl)amino)-5-(isochroman-6-ylamino)-1,2,4-triazine-6-carboxamide]	10 to 100 nM
Cc1ccc(Nc2nc(N[C@H](Cc3cccs3)C(N)=O)nnc2C(N)=O)cc1 [Example 188, (R)-3-(1-amino-1-oxo-3-(thiophen-2-yl)propan-2-ylamino)-5-(p-tolylamino)-1,2,4-triazine-6-carboxamide]	10 to 100 nM
CC[C@@H](Nc1nnc(C(N)=O)c(Nc2cccc(C#N)c2)n1)C(N)=O [Example 73, (R)-3-((1-amino-1-oxobutan-2-yl)amino)-5-((3-cyanophenyl)amino)-1,2,4-triazine-6-carboxamide]	100 to 1000 nM
COc1ccc(Nc2nc(N[C@H](CC(C)C)C(N)=O)nnc2C(N)=O)cc1C(F)(F)F [Example 113, (R)-3-((1-amino-4-methyl-1-oxopentan-2-yl)amino)-5-((4-methoxy-3-(trifluoromethyl)phenyl)amino)-1,2,4-triazine-6-carboxamide]	10 to 100 nM
NC(=O)c1nnc(N[C@@H]2CCCC(F)(F)[C@@H]2N)nc1Nc1ccc2c(c1)CCCC2 [Example 237, 3-(((1R,2R)-2-amino-3,3-difluorocyclohexyl)amino)-5-((5,6,7,8-tetrahydronaphthalen-2-yl)amino)-1,2,4-triazine-6-carboxamide]	10 to 100 nM
Cc1ccc(Nc2nc(N[C@@H]3CCCC(F)(F)[C@@H]3N)nnc2C(N)=O)cc1C#N [Example 233, 3-(((1R,2R)-2-amino-3,3-difluorocyclohexyl)amino)-5-((3-cyano-4-methylphenyl)amino)-1,2,4-triazine-6-carboxamide]	100 to 1000 nM
Cc1cc(Nc2nc(N[C@H](CC3CC3)C(N)=O)nnc2C(N)=O)sn1 [Example 141, (R)-3-((1-amino-3-cyclopropyl-1-oxopropan-2-yl)amino)-5-((3-methylisothiazol-5-yl)amino)-1,2,4-triazine-6-carboxamide]	10 to 100 nM
CC[C@@H](Nc1nnc(C(N)=O)c(Nc2cnc3cccnc3c2)n1)C(N)=O [Example 146, (R)-5-((1,5-naphthyridin-3-yl)amino)-3-((1-amino-1-oxobutan-2-yl)amino)-1,2,4-triazine-6-carboxamide]	100 to 1000 nM
NC(=O)c1nnc(N[C@@H]2CCCC[C@@H]2N)nc1NC1CCc2ccccc2C1 (stereo partly drawn) [Example 206, 3-(((1R,2S)-2-aminocyclohexyl)amino)-5-((1,2,3,4-tetrahydronaphthalen-2-yl)amino)-1,2,4-triazine-6-carboxamide]	10 to 100 nM

From patent US9040530B2, “1,2,4-triazine-6-carboxamide kinase inhibitors” (Portola Pharmaceuticals, Inc., priority 2012, dated 2015)
